Drawing on US20060116407A1, “Amide derivatives” (priority 2004, published 2006), this text covers inhibition and IC50 for five molecules.

For orientation: IC50 means the concentration that inhibits the measured activity by half. Low values mean greater potency, high ones weaker potency.

One experiment concerns the target T1, HER-2 (Homo sapiens, UniProt P04626).
T1 construct: endogenous in cells; host or cells: Calu-3 (ATCC HTB-55)
Briefly: Inhibition of HER-2 phosphorylation in Calu-3 tumor cell line. The conditions noted are these: Calu-3 cells, compound 1 μM, 16 h, pY 1248 in HER-2, percentage of DMSO control; read-out: Percent inhibition of HER2-phosphorylation (compound concentration 1 μM). The class given is cell-based. The protocol:
Inhibition of HER-2 Phosphorylation in Calu-3 Tumor Cell Line
2×10^5 Calu-3 (ATTC HTB-55) cells per well were plated in a 12-well plate. After 4 days cells were starved for 16 h in Dulbecco's Modified Eagle Medium (DMEM)/0.5% Fetal Calf Serum (FCS)/1% Glutamine. During this 16 h period cells were incubated with a solution of the test compound in dimethylsulfoxide(DMSO), so that the final concentration of the compound is 1 μM and the final volume of DMSO is 0.5%. Afterwards cells were lysed in lyses buffer containing 1% Triton®X-100, 10% Glycerol, 1 mM Ethylene glycol-bis(2-aminoethylether)-N,N,N′,N′-tetraacetic acid (EGTA), 1.5 mM MgCl2, 150 mM NaCl, 50 mM 4-(2-hydroxyethyl)-1-piperazineethanesulfonic acid (HEPES) buffer pH 7.5, 1 mM Phenylmethylsulfonyl fluoride (PMSF), 10 ∥g/mL Aprotinin and […] Orthovanadate. Cell lysates were analyzed on a Sodium Dodecyl Sulfate Polyacrylamide Gel Electrophoresis (SDS PAGE) and after transfer to a nitrocellulose membrane detected with an antibody specifically recognizing the pY 1248 in HER-2. Inhibition of HER-2 phosphorylation is calculated as percentage of the control, which is treated with DMSO only.

The next experiment deals with HEK293 cells. Briefly: Viability assay of HEK293 cells (CellTiter-Glo). Particulars: Homo sapiens, 168 h, 7 days, 3 μM to 0.00015 μM, luminescence. The class given is cell-based. The protocol: Viability Assay of HEK293 Cells
A viability assay was performed using the CellTiter-Glo™ Luminescent Cell Viability Assay (see Promega Corporation's Technical Publication No. 288, pp. 1-11 [revised 2.04] which is hereby incorporated by reference in its entirety). This assay is a homogeneous method of determining the number of viable cells in culture based on quantitation of the ATP present, which signals the presence of metabolically active cells. The assay is designed for use with multiwell formats, making it ideal for automated high-throughput screening (HTS), cell proliferation and cytotoxicity assays. The homogeneous assay procedure involves adding a single reagent (containing luciferase, luciferan substrate, and buffer) directly to cells cultured in serum-supplemented medium. Cell washing, removal of medium and multiple pipetting steps are not required. The system detects as few as 15 cells/well in a 384-well format in 10 minutes after adding reagent and mixing.
The homogeneous “add-mix-measure” format results in cell lysis and generation of a luminescent signal proportional to the amount of ATP present. The amount of ATP is directly proportional to the number of cells present in culture. The above-referenced assay generates a “glow-type” luminescent signal, produced by the luciferase reaction, which has a half-life generally greater than five hours, depending on cell type and medium used. The extended half-life eliminates the need to use reagent injectors and provides flexibility for continuous or batch mode processing of multiple plates. The unique homogeneous format avoids errors that may be introduced by other ATP measurement methods that require multiple steps.
HEK293 cells (human embryonic kidney cell line transformed by Adenovirus 5 fragments, ATCC-No. CRL 1573) were cultivated in Dulbecco's Modified Eagle Medium (DMEM) (1×) liquid (high glucose) (which includes L-Alanyl-L-Glutamine [a stabilized a form of L-Glutamine], 4500 mg/L glucose, and 110 mg/L sodium pyruvate) from Invitrogen Corporation (Invitrogen Catalog Number 31966-021 [now 10569-010] which is hereby incorporated by reference in its entirety), 5% Fetal Calf Serum (FCS, Sigma Cat-No. F4135 (FBS) which is hereby incorporated by reference in its entirety), and 100 Units/ml penicillin/100 μg/ml streptomycin(=Pen/Strep from Invitrogen Cat. No. 15140 which is hereby incorporated by reference in its entirety). For the assay the cells were seeded in 384 well plates, 5000 cells per well, in the same medium. The next day the test compounds were added in various concentrations ranging from 3 μM to 0.00015 μM (10 concentrations, 1:3 diluted). After 7 days the above viability assay was performed in accordance with the following steps: • Step 1: The cell-plate was equilibrated to room temperature for approximately 30 minutes and than the assay reagent was added. • Step 2: The contents were carefully mixed for 15 minutes to induce cell lysis. • Step 3: After 45 minutes the luminescent signal was measured in Victor 2, (scanning multiwell spectrophotometer, Wallac). Details: 1st Day: • Medium: Dulbecco's Modified Eagle Medium (DMEM) (1×) liquid (high glucose) (which includes L-Alanyl-L-Glutamine [a stabilized a form/source of L-Glutamine], 4500 mg/L glucose, and 110 mg/L sodium pyruvate) from Invitrogen Corporation (Invitrogen Catalog Number 31966-021 [now 10569-010]), 5% Fetal Calf Serum (FCS, Sigma Cat-No. F4135 (FBS)), and Pen/Strep (Invitrogen Cat. No. 15140). • HEK293 (ATCC-No. CRL 1573): 5000 cells in 60 μl per well of 384 well plate. (Greiner 781098, white plates) • Incubate 24 h at 37° C., 5% CO2 2nd Day: Induction (Substance Testing):
In general the dilution steeps are 1:3 a) Add 8 μl of 10 mM stock solution of compound to 72 μl DMSO b) dilute 9×1:3 (always 30 μl to 60 μl DMSO) in this DMSO dilution row (results in 10 wells with concentrations from 1000 μM to 0.06 μM) c) dilute each concentration 1: 4.8 (10 μl compound dilution to 38 μl medium) […]
(In ATP-based viability assays light output follows the ATP content of the culture.)

T1 sequence (P04626 23-1255): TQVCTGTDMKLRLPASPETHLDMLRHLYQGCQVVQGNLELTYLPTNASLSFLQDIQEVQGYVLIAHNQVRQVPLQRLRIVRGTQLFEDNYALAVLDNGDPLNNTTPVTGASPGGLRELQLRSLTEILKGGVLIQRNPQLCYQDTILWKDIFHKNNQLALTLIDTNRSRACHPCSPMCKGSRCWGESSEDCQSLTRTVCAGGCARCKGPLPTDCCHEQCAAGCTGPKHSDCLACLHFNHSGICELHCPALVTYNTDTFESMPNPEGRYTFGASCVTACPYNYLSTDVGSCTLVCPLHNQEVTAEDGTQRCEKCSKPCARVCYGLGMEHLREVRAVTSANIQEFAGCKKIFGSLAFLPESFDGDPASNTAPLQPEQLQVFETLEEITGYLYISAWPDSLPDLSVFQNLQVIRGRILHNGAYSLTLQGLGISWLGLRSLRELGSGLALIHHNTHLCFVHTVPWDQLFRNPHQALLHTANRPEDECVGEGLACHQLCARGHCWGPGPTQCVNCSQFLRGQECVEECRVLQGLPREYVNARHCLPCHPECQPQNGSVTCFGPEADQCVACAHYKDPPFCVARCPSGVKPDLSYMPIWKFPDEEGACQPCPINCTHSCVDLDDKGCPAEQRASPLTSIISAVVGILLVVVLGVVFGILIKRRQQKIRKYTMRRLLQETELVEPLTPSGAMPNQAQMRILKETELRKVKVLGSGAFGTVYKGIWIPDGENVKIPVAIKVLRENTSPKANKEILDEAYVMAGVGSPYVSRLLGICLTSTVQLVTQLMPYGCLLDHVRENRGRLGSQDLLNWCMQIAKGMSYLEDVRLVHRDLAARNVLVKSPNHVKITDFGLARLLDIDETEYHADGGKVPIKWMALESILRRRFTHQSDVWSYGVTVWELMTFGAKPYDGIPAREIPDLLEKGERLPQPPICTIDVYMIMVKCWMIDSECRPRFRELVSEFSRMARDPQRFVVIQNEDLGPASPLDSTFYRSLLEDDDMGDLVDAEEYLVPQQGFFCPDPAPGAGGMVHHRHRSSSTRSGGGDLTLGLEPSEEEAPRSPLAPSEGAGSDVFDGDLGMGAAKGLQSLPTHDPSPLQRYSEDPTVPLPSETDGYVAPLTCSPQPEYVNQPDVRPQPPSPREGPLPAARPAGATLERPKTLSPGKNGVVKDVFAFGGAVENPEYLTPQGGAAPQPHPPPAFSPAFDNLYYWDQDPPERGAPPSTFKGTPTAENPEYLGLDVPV

For the molecule `O=C(Nc1ccc(Cl)cc1F)c1coc(COc2ccc(CCCCn3ccnn3)cc2)n1` [Example 14, 2-[4-(4-[1,2,3]Triazol-1-yl-butyl)-phenoxymethyl]-oxazole-4-carboxylic acid (4-chloro-2-fluoro-phenyl)-amide], on HER-2, the inhibition at 1 µM turned out to be 72%. This molecule also yielded an IC50 with HEK293 cells of 500 to 3000 nM.

For `CC(C)(C)c1ccc(C(=O)Nc2nc(COc3ccc(CCCCn4ccnn4)cc3)cs2)cc1` [Example 52-21, 4-tert-Butyl-N-{4-[4-(4-[1,2,3]triazol-1-yl-butyl)-phenoxymethyl]-thiazol-2-yl}-benzamide], the inhibition at 1 µM on HER-2 was above 80%. The same molecule displayed an IC50 in the experiment on HEK293 cells of 5 to 500 nM.

For the molecule `O=C(Nc1ccc(F)cc1)c1coc(COc2ccc(CCCCn3ccnn3)cc2)n1` [Example 31, 2-[4-(4-[1,2,3]Triazol-1-yl-butyl)-phenoxymethyl]-oxazole-4-carboxylic acid (4-fluoro-phenyl)-amide], the inhibition at 1 µM at HER-2 fell in the range of 55 to 70%. The molecule also returned an IC50 in the experiment on HEK293 cells of 500 to 3000 nM.

Turning to `O=C(Nc1ccc(C(F)(F)F)cc1)c1csc(COc2ccc(CCCCn3ccnn3)cc2)n1` [Example 41, 2-[4-(4-[1,2,3]Triazol-1-yl-butyl)-phenoxymethyl]-thiazole-4-carboxylic acid (4-trifluoromethyl-phenyl)-amide], on HER-2, the inhibition at 1 µM is above 80%. This molecule also yielded an IC50 with HEK293 cells of 5 to 500 nM.

For the molecule `O=C(Nc1ccc2c(c1)OC(F)(F)O2)c1coc(COc2ccc(CCCCn3ccnn3)cc2)n1` [Example 9, 2-[4-(4-[1,2,3]Triazol-1-yl-butyl)-phenoxymethyl]-oxazole-4-carboxylic acid (2,2-difluoro-benzo [1,3]dioxol-5-yl)-amide], the inhibition at 1 µM on HER-2 was 55 to 70%. In the experiment on HEK293 cells, this molecule yielded an IC50 of 116 nM.
